Columns and labels:
Format in all cases: in vivo
Kochia (Kochia scoparia) [1] = assay: Test A preemergence; details: Bassia scoparia, pre-emergence, 240 h, 0 to 100 scale where 0 is no effect and 100 is complete control, read-out: Kochia plant response rating
In short: (§1)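 Visual injury scores from 0, no effect, to 100, complete control, were assigned versus untreated controls roughly 10 d after treatment in the greenhouse. Test chemicals, formulated with surfactant in a non-phytotoxic solvent, were applied to planted seeds as a preemergence soil spray or postemergence to one- to two-leaf plants 2 to 10 cm tall, in loam–sand soil.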

[2] = system: barnyardgrass (Echinochloa crus-galli); assay: Test A preemergence; details: Echinochloa crus-galli, pre-emergence, 240 h, 0 to 100 scale where 0 is no effect and 100 is complete control, read-out: Barnyardgrass plant response rating
In short: as §1

[3] = system: giant foxtail (Setaria faberii); assay: Test A preemergence; details: Setaria faberi, pre-emergence, 240 h, 0 to 100 scale where 0 is no effect and 100 is complete control, read-out: Foxtail, Giant plant response rating
In short: as §1

[4] = system: pigweed (Amaranthus retroflexus); assay: Test A preemergence; details: Amaranthus retroflexus, pre-emergence, 240 h, 0 to 100 scale where 0 is no effect and 100 is complete control, read-out: Pigweed plant response rating
[5] = system: ragweed (common ragweed, Ambrosia elatior); assay: Test A preemergence; details: Ambrosia artemisiifolia, pre-emergence, 240 h, 0 to 100 scale where 0 is no effect and 100 is complete control, read-out: Ragweed plant response rating
In short: as §1

[6] = system: ryegrass, Italian (Italian ryegrass, Lolium multiflorum); assay: Test A preemergence; details: Lolium multiflorum, pre-emergence, 240 h, 0 to 100 scale where 0 is no effect and 100 is complete control, read-out: Ryegrass, Italian plant response rating
In short: as §1

[7] = system: Galium (catchweed bedstraw, Galium aparine); assay: Test A postemergence; details: Galium, post-emergence, 240 h
In short: as §1

Kochia (Kochia scoparia) [8] = assay: Test A postemergence; details: Bassia scoparia, post-emergence, 240 h
In short: as §1

[9] = system: barnyardgrass (Echinochloa crus-galli); assay: Test A postemergence; details: Echinochloa crus-galli, post-emergence, 240 h
In short: as §1

[10] = system: blackgrass (Alopecurus myosuroides); assay: Test A postemergence; details: Alopecurus myosuroides, post-emergence, 240 h
In short: as §1

corn (Zea mays) = assay: Test A postemergence; details: Zea mays, post-emergence, 240 h
In short: as §1

[11] = system: giant foxtail (Setaria faberii); assay: Test A postemergence; details: Setaria faberi, post-emergence, 240 h
In short: as §1

[12] = system: pigweed (Amaranthus retroflexus); assay: Test A postemergence; details: Amaranthus retroflexus, post-emergence, 240 h
In short: as §1

[13] = system: ragweed (common ragweed, Ambrosia elatior); assay: Test A postemergence; details: Ambrosia artemisiifolia, post-emergence, 240 h
In short: as §1

[14] = system: ryegrass, Italian (Italian ryegrass, Lolium multiflorum); assay: Test A postemergence; details: Lolium multiflorum, post-emergence, 240 h
In short: as §1

[15] = system: wheat (Triticum aestivum); assay: Test A postemergence; details: Triticum aestivum, post-emergence, 240 h
In short: as §1

[16] = system: barnyardgrass (Echinochloa crus-galli); assay: Test B flooded paddy test; details: Echinochloa crus-galli, 250 g ai/ha, Flood; 0 to 100 scale where 0 is no effect and 100 is complete control; read-out: Barnyardgrass plant response rating
In short: (§2)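 Percent control, visually estimated after 13–15 d in the greenhouse on a 0–100 basis, compares treated pots with untreated ones; compound was put into paddy water 3 cm above the soil when plants had two leaves.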

[17] = system: ducksalad (Heteranthera limosa); assay: Test B flooded paddy test; details: Heteranthera limosa, 250 g ai/ha, Flood; 0 to 100 scale where 0 is no effect and 100 is complete control; read-out: Ducksalad plant response rating
In short: as §2

rice (Oryra sativa) = assay: Test B flooded paddy test; details: Oryza sativa, 250 g ai/ha, Flood; 0 to 100 scale where 0 is no effect and 100 is complete control; read-out: Rice plant response rating
In short: as §2

[18] = system: sedge, umbrella (small-flower umbrella sedge, Cyperus difformis); assay: Test B flooded paddy test; details: Cyperus difformis, 250 g ai/ha, Flood; 0 to 100 scale where 0 is no effect and 100 is complete control; read-out: Sedge, Umbrella plant response rating
In short: as §2

[19] = 125 g ai/ha, preemergence, approx. 10 d

CN1C[C@H](c2ccc(F)c(Oc3ccccc3)c2)[C@@H](C(=O)Nc2ccccc2S(C)(=O)=O)C1=O [Compound 1143]
20%: pest or weed control at 31 g/ha ([3]; 31 g ai/ha, Preemergence) | pest or weed control at 125 g/ha ([12]; 125 g ai/ha, postemergence, visual injury vs untreated controls after approx. 10 d, 0 = no effect, 100 = complete control, read-out: Pigweed plant response rating (0 to 100 scale))
40%: pest or weed control at 125 g/ha [2, 19] | pest or weed control at 125 g/ha ([11]; 125 g ai/ha, postemergence, visual injury on 0 to 100 scale (0 no effect, 100 complete control), approx. 10 d, read-out: Foxtail, Giant plant response rating)
0%: pest or weed control at 31 g/ha (Kochia (Kochia scoparia) [1]; 31 g ai/ha, Preemergence) | pest or weed control at 125 g/ha (Kochia (Kochia scoparia) [1]; [19]) | pest or weed control at 31 g/ha ([2]; 31 g ai/ha, Preemergence) | pest or weed control at 31 g/ha ([4]; 31 g ai/ha, Preemergence) | pest or weed control at 125 g/ha [4, 19] | pest or weed control at 31 g/ha ([5]; 31 g ai/ha, Preemergence) | pest or weed control at 125 g/ha [5, 19] | pest or weed control at 31 g/ha ([6]; 31 g ai/ha, Preemergence) | pest or weed control at 125 g/ha [6, 19] | pest or weed control at 125 g/ha ([7]; 125 g ai/ha, postemergence, visual injury on 0 to 100 scale (0 no effect, 100 complete control), approx. 10 d, read-out: Galium plant response rating) | pest or weed control at 31 g/ha ([7]; Postemergence, 31 g ai/ha, visual injury after approx. 10 d, 0 to 100 scale, 0 no effect, 100 complete control, read-out: Plant response rating, Galium) | pest or weed control at 125 g/ha (Kochia (Kochia scoparia) [8]; 125 g ai/ha, postemergence, visual injury on 0 to 100 scale (0 no effect, 100 complete control), approx. 10 d, read-out: Kochia plant response rating) | pest or weed control at 31 g/ha (Kochia (Kochia scoparia) [8]; Postemergence, 31 g ai/ha, visual injury after approx. 10 d, 0 to 100 scale, 0 no effect, 100 complete control, read-out: Plant response rating, Kochia) | pest or weed control at 31 g/ha ([9]; Postemergence, 31 g ai/ha, visual injury after approx. 10 d, 0 to 100 scale, 0 no effect, 100 complete control, read-out: Plant response rating, Barnyardgrass) | pest or weed control at 125 g/ha ([10]; 125 g ai/ha, postemergence, visual injury on 0 to 100 scale (0 no effect, 100 complete control), approx. 10 d, read-out: Blackgrass plant response rating) | pest or weed control at 31 g/ha ([10]; Postemergence, 31 g ai/ha, visual injury after approx. 10 d, 0 to 100 scale, 0 no effect, 100 complete control, read-out: Plant response rating, Blackgrass) | plant injury at 125 g/ha (corn (Zea mays); 125 g ai/ha, postemergence, visual injury on 0 to 100 scale (0 no effect, 100 complete control), approx. 10 d, read-out: Corn plant response rating) | Corn plant response rating (crop injury, 0 = no effect, 100 = complete kill) at 31 g/ha (corn (Zea mays); Postemergence, 31 g ai/ha, visual injury after approx. 10 d, 0 to 100 scale, 0 no effect, 100 complete control) | pest or weed control at 31 g/ha ([11]; Postemergence, 31 g ai/ha, visual injury after approx. 10 d, 0 to 100 scale, 0 no effect, 100 complete control, read-out: Plant response rating, Foxtail, Giant) | pest or weed control at 31 g/ha ([12]; Postemergence, 31 g ai/ha, visual injury after approx. 10 d, 0 to 100 scale, 0 no effect, 100 complete control, read-out: Plant response rating, Pigweed) | pest or weed control at 125 g/ha ([13]; 125 g ai/ha, postemergence, visual injury vs untreated controls after approx. 10 d, 0 = no effect, 100 = complete control, read-out: Ragweed plant response rating (0 to 100 scale)) | pest or weed control at 31 g/ha ([13]; Postemergence, 31 g ai/ha, visual injury after approx. 10 d, 0 to 100 scale, 0 no effect, 100 complete control, read-out: Plant response rating, Ragweed) | pest or weed control at 125 g/ha ([14]; 125 g ai/ha, postemergence, visual injury vs untreated controls after approx. 10 d, 0 = no effect, 100 = complete control, read-out: Ryegrass, Italian plant response rating (0 to 100 scale)) | pest or weed control at 31 g/ha ([14]; Postemergence, 31 g ai/ha, visual injury after approx. 10 d, 0 to 100 scale, 0 no effect, 100 complete control, read-out: Plant response rating, Ryegrass, Italian) | plant injury at 125 g/ha ([15]; 125 g ai/ha, postemergence, visual injury vs untreated controls after approx. 10 d, 0 = no effect, 100 = complete control, read-out: Wheat plant response rating (0 to 100 scale)) | plant injury at 31 g/ha ([15]; Postemergence, 31 g ai/ha, visual injury after approx. 10 d, 0 to 100 scale, 0 no effect, 100 complete control, read-out: Plant response rating, Wheat) | pest or weed control at 250 g/ha [16] | pest or weed control at 250 g/ha [17] | pest or weed control at 250 g/ha (rice (Oryra sativa)) | pest or weed control at 250 g/ha [18]
50%: pest or weed control at 125 g/ha ([9]; 125 g ai/ha, postemergence, visual injury on 0 to 100 scale (0 no effect, 100 complete control), approx. 10 d, read-out: Barnyardgrass plant response rating)
80%: pest or weed control at 125 g/ha [3, 19]
